Test results published in patent US7795290B2 (Genentech, Inc., priority 2004, dated 2010).

The compounds below were run against T1, AKT1 (Homo sapiens, UniProt P31749) (assay: HTS ATP-utilizing enzyme assay, off-chip mobility-shift (Caliper HTS 250)). Conditions: kinase named = inhibitory activity/selectivity; test compound 10 μM; active = greater than three-sigma from mean.
T1 construct: purchased Upstate 14-276
Format: biochemical
Excerpt: The following procedures describe the reagent and plate preparation for a HTS of an ATP-utilizing enzyme, such as a protein kinase, run in an off-chip mobility-shift assay format. The following provides an HTS protocol for running a protein kinase HTS screen on a Caliper HTS 250 microfluidics system. The following parameters are dependent on the protein kinase used and can be determined by one skilled in the art as part of a typical assay development process. For example, the peptide substrate used can be identified from the current literature, by screening a peptide library of potential protein kinase substrates, or by other applicable means accepted in the field.
The following table provides typical screen assay parameters appropriate for a Caliper HTS 250 microfluidics system used to assay AKT1. Parameters used to assay other protein kinases can be determined by one skilled in the art.
Assays to determine the kinase inhibitory activity of chemical entities of the present disclosure were performed using a Caliper HTS 250 microfluidics device, Greiner U-bottom assay plates, a Multidrop for transfer of reagents, and Biomek FX (AMNCBM03) software. Initially, 2.4 μL of a 1 mM solution of a test compound in 100% DMSO was added to a well of the Greiner U-bottom plate. A single Greiner U-bottom plate having 24×16 wells could include multiple test compounds. […] Using the Biomek FX, 10 μL of 0.5 M EDTA was added by the span-8 to wells, indicated as 100% Control and 2.4 μL of 100% DMSO was added by the span-8 to wells, indicated as 0% Control. […] The total reaction volume in each well was 25 μL, and the concentration of the test compound was 10 μM. The assay plate was incubated for 2.5 hrs at 20° C. to 22° C. […] The inhibition of the ATP-utilizing enzyme, such as a particular protein kinase, was determined by measuring the ratio of the peptide substrate to phosphorylated product for each well of the assay plate using the Caliper HTS 250 system.
The use of three-sigma statistical limits represents a conservative method for declaring potential hits among targets. The three-sigma activity, as well as the mean population activity, can be different for each target enzyme.
Each chemical entity listed in Table 2 was tested for protein kinase inhibitory activity according to the biological assays and definitions of protein kinase inhibitory activity as described herein.

T1 sequence (P31749 whole entry): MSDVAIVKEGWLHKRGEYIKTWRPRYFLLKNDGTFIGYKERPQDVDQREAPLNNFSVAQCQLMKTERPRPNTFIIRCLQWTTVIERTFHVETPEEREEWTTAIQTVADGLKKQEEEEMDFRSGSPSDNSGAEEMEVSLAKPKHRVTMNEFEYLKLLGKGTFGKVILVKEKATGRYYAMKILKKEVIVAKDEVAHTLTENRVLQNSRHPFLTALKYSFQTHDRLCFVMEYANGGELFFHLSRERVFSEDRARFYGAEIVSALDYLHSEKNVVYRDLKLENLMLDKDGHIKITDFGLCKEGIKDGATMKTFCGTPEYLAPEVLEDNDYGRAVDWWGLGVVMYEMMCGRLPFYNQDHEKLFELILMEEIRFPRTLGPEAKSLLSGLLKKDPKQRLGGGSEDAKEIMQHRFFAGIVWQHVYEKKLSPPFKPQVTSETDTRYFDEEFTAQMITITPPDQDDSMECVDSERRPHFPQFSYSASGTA

SMILES	Activity
CN(C)CCNC(=O)CCN(C(=O)c1cccs1)c1nc(-c2cc3ccccc3o2)cs1 [N-(4-(benzofuran-2-yl)thiazol-2-yl)-N-(3-(2-(dimethylamino)ethylamino)-3-oxopropyl)thiophene-2-carboxamide]	AKT1
O=C(c1cccs1)N(CCCC(=O)N(CCCCO)C1CCCCC1)c1nc(-c2cc3ccccc3o2)cs1 [N-(4-(benzofuran-2-yl)thiazol-2-yl)-N-(4-(cyclohexyl(4-hydroxybutyl)amino)-4-oxobutyl)thiophene-2-carboxamide]	AKT1
O=C(c1ccc(F)cc1)N(CCCN1CCOCC1)c1nc(-c2ccccc2)cs1 [4-fluoro-N-(3-morpholinopropyl)-N-(4-phenylthiazol-2-yl)benzamide]	AKT1
CCN(CC)CCCN(C(=O)c1ccccc1)c1nc(-c2cc(OC)ccc2OC)cs1 [N-(3-(diethylamino)propyl)-N-(4-(2,5-dimethoxyphenyl)thiazol-2-yl)benzamide]	AKT1
CN(CC(O)CO)C(=O)CCN(C(=O)c1cccs1)c1nc(-c2cc3ccccc3o2)cs1 (stereo not shown) [N-(4-(benzofuran-2-yl)thiazol-2-yl)-N-(3-((2,3-dihydroxypropyl)(methyl)amino)-3-oxopropyl)thiophene-2-carboxamide]	AKT1
O=C(c1cccs1)N(CCCN1CCOCC1)c1nc(C2CCCCC2)cs1 [N-(4-cyclohexylthiazol-2-yl)-N-(3-morpholinopropyl)thiophene-2-carboxamide]	AKT1
O=C(c1cccs1)N(CCCN1CCOCC1)c1nc(-c2ccc(-c3ccccn3)s2)cs1 [N-(3-morpholinopropyl)-N-(4-(5-(pyridin-2-yl)thiophen-2-yl)thiazol-2-yl)thiophene-2-carboxamide]	AKT1
CCN(CC)CCCN(C(=O)c1cccs1)c1nc(-c2cc(OC)ccc2OC)cs1 [N-(3-(diethylamino)propyl)-N-(4-(2,5-dimethoxyphenyl)thiazol-2-yl)thiophene-2-carboxamide]	AKT1
O=C(c1cccs1)N(CCCN1CCOCC1)c1nc(-c2ccc3c(c2)OCO3)cs1 [N-(4-(benzo[d][1,3]dioxol-5-yl)thiazol-2-yl)-N-(3-morpholinopropyl)thiophene-2-carboxamide]	AKT1
COc1ccc(OC)c(-c2csc(N(CCCN3CCCCCC3)C(=O)c3ccco3)n2)c1 [N-(3-(azepan-1-yl)propyl)-N-(4-(2,5-dimethoxyphenyl)thiazol-2-yl)furan-2-carboxamide]	AKT1
O=C(c1cccs1)N(CCCN1CCOCC1)c1nc(-c2coc3ccccc23)cs1 [N-(4-(benzofuran-3-yl)thiazol-2-yl)-N-(3-morpholinopropyl)thiophene-2-carboxamide]	AKT1
COc1ccc(OC)c(-c2csc(N(CCCN3CCCCCC3)C(=O)c3cccs3)n2)c1 [N-(3-(azepan-1-yl)propyl)-N-(4-(2,5-dimethoxyphenyl)thiazol-2-yl)thiophene-2-carboxamide]	AKT1
O=C(CCCN(C(=O)c1cccs1)c1nc(-c2cc3ccccc3o2)cs1)N(CCO)c1ccccc1 [N-(4-(benzofuran-2-yl)thiazol-2-yl)-N-(4-((2-hydroxyethyl)(phenyl)amino)-4-oxobutyl)thiophene-2-carboxamide]	AKT1
O=C(CCN(C(=O)c1cccs1)c1nc(-c2cc3ccccc3o2)cs1)N1CCSC1 [N-(4-(benzofuran-2-yl)thiazol-2-yl)-N-(3-oxo-3-(thiazolidin-3-yl)propyl)thiophene-2-carboxamide]	AKT1
CCN(CC)C1CCN(CCCN(C(=O)c2cccs2)c2nc(-c3cc4ccccc4o3)cs2)C1 (stereo not shown) [N-(4-(benzofuran-2-yl)thiazol-2-yl)-N-(3-(3-(diethylamino)pyrrolidin-1-yl)propyl)thiophene-2-carboxamide]	AKT1
NC(=O)C1CCCN1C(=O)CCCN(C(=O)c1cccs1)c1nc(-c2cc3ccccc3o2)cs1 (stereo not shown) [1-(4-(N-(4-(benzofuran-2-yl)thiazol-2-yl)thiophene-2-carboxamido)butanoyl)pyrrolidine-2-carboxamide]	AKT1
Cn1cccc1C(=O)N(CCCN1CCOCC1)c1nc(-c2cc(-c3ccccc3)no2)cs1 [1-methyl-N-(3-morpholinopropyl)-N-(4-(3-phenylisoxazol-5-yl)thiazol-2-yl)-1H-pyrrole-2-carboxamide]	AKT1

SMILES	Activity
CN(C)CCCC(=O)NCCCN(C(=O)c1cccs1)c1nc(-c2cc3ccccc3o2)cs1 [N-(4-(benzofuran-2-yl)thiazol-2-yl)-N-(3-(4-(dimethylamino)butanamido)propyl)thiophene-2-carboxamide]	AKT1
O=C(c1ccc(-c2csc(N(CCCN3CCOCC3)C(=O)c3cccs3)n2)cc1)N1CCOCC1 [N-(4-(4-(morpholine-4-carbonyl)phenyl)thiazol-2-yl)-N-(3-morpholinopropyl)thiophene-2-carboxamide]	AKT1
CN(CC(O)CO)C(=O)CCCN(C(=O)c1cccs1)c1nc(-c2cc3ccccc3o2)cs1 (stereo not shown) [N-(4-(benzofuran-2-yl)thiazol-2-yl)-N-(4-((2,3-dihydroxypropyl)(methyl)amino)-4-oxobutyl)thiophene-2-carboxamide]	AKT1
O=C(Nc1ccc2ncsc2c1)c1csc(N(CCCN2CCOCC2)C(=O)c2cccs2)n1 [N-(benzo[d]thiazol-6-yl)-2-(N-(3-morpholinopropyl)thiophene-2-carboxamido)thiazole-4-carboxamide]	AKT1
O=C(Nc1ccc2c(c1)OCCO2)c1csc(N(CCCN2CCOCC2)C(=O)c2cccs2)n1 [N-(2,3-dihydrobenzo[b][1,4]dioxin-6-yl)-2-(N-(3-morpholinopropyl)thiophene-2-carboxamido)thiazole-4-carboxamide]	AKT1
CNC(=O)C1CCN(C(=O)CCCN(C(=O)c2cccs2)c2nc(-c3cc4ccccc4o3)cs2)CC1 [1-(4-(N-(4-(benzofuran-2-yl)thiazol-2-yl)thiophene-2-carboxamido)butanoyl)-N-methylpiperidine-4-carboxamide]	AKT1
O=C(c1cccs1)N(CCCN1CCCCC1CO)c1nc(-c2cc3ccccc3o2)cs1 (stereo not shown) [N-(4-(benzofuran-2-yl)thiazol-2-yl)-N-(3-(2-(hydroxymethyl)piperidin-1-yl)propyl)thiophene-2-carboxamide]	AKT1
O=C(NCCN1CCOCC1)c1ccc(-c2csc(N(CCCN3CCOCC3)C(=O)c3cccs3)n2)cc1 [N-(4-(4-(2-morpholinoethylcarbamoyl)phenyl)thiazol-2-yl)-N-(3-morpholinopropyl)thiophene-2-carboxamide]	AKT1
O=C(c1cccs1)N(CCCN1CCOCC1)c1nc(-c2ccc(Cl)c([N+](=O)[O-])c2)cs1 [N-(4-(4-chloro-3-nitrophenyl)thiazol-2-yl)-N-(3-morpholinopropyl)thiophene-2-carboxamide]	AKT1
O=C(CCN(C(=O)c1cccs1)c1nc(-c2cc3ccccc3o2)cs1)NCc1ccoc1 [N-(4-(benzofuran-2-yl)thiazol-2-yl)-N-(3-(furan-3-ylmethylamino)-3-oxopropyl)thiophene-2-carboxamide]	AKT1
Cc1ccc(C(=O)N(CCCN2CCOCC2)c2nc(-c3ccccc3)cs2)cc1 [4-methyl-N-(3-morpholinopropyl)-N-(4-phenylthiazol-2-yl)benzamide]	AKT1
O=C(c1cccs1)N(CCCN1CCC(CCO)CC1)c1nc(-c2cc3ccccc3o2)cs1 [N-(4-(benzofuran-2-yl)thiazol-2-yl)-N-(3-(4-(2-hydroxyethyl)piperidin-1-yl)propyl)thiophene-2-carboxamide]	AKT1
Cc1cc(C(=O)NCCCN(C(=O)c2cccs2)c2nc(-c3cc4ccccc4o3)cs2)nn1C [N-(3-(N-(4-(benzofuran-2-yl)thiazol-2-yl)thiophene-2-carboxamido)propyl)-1,5-dimethyl-1H-pyrazole-3-carboxamide]	AKT1
CC(=O)NCCCN(C(=O)c1cccs1)c1nc(-c2cc3ccccc3o2)cs1 [N-(3-acetamidopropyl)-N-(4-(benzofuran-2-yl)thiazol-2-yl)thiophene-2-carboxamide]	AKT1
COc1ccc(OC)c(-c2csc(N(CCCN3CCOCC3)C(=O)c3cccs3)n2)c1 [N-(4-(2,5-dimethoxyphenyl)thiazol-2-yl)-N-(3-morpholinopropyl)thiophene-2-carboxamide]	AKT1
O=C(c1ccco1)N(CCCN1CCOCC1)c1nc(-c2cc3ccccc3o2)cs1 [N-(4-(benzofuran-2-yl)thiazol-2-yl)-N-(3-morpholinopropyl)furan-2-carboxamide]	AKT1
COCCN1CCN(CCCN(C(=O)c2cccs2)c2nc(-c3cc4ccccc4o3)cs2)CC1 [N-(4-(benzofuran-2-yl)thiazol-2-yl)-N-(3-(4-(2-methoxyethyl)piperazin-1-yl)propyl)thiophene-2-carboxamide]	AKT1
